This passage reports DC50 results from US20260355196A1, “INHIBITORS AND DEGRADERS OF PIP4K PROTEIN” (Larkspur Biosciences, Inc., priority 2023, published 2026).

For the test, the target named is T1, PIP4K2C (Homo sapiens, UniProt Q8TBX8).
T1 sequence (Q8TBX8 1-421): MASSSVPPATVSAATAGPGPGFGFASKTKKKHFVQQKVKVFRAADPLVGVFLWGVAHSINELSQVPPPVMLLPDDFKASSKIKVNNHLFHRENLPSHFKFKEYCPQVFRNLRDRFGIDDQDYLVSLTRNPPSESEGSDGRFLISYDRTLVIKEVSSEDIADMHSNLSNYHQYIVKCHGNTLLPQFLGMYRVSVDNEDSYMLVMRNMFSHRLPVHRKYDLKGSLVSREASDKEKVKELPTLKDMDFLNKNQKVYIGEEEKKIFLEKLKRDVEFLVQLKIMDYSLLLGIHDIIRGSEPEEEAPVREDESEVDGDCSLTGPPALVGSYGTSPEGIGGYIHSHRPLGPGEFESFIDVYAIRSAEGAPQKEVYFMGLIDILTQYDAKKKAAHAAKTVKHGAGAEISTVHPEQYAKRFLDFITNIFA
The experiment in a line: HiBiT PIP4K2C degradation assay in MOLT-4 cells (endogenous PIP4K2C C-terminally tagged with HiBiT). It counts as cell-based. Also noted: untagged in primary human PBMCs and monocyte-derived dendritic cells. Conditions: 6 hours of incubation time, rather than 24 hours; MOLT-4, top concentration 10 micromolar; read-out: HiBIT-degradation MOLT4 PIP4k2C DC50 (6 hours, marked *). An outline of the steps:
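DC50 derived by Hill fit of luminescence from Nano-Glo HiBiT lytic detection. Cells were HiBiT knock-in MOLT-4 (C-terminal tag on endogenous PIP4K2C), exposed 6 h or 24 h at 37 C to compound, top concentration 10 micromolar, 3-fold steps, 10 points, duplicates.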
The term DC50 denotes the midpoint of the concentration-degradation curve. Turning to `O=C1CCC(Nc2ccc(N3CCC(N4CCC(C(=O)N[C@H]5CC[C@H](Nc6ncc(F)c(-c7cccc(C8CC8)c7)n6)CC5)CC4)C(F)(F)C3)c(F)c2)C(=O)N1` (stereo partly drawn) [Compound 497, trans-N-(4-((4-(3-cyclopropylphenyl)-5-fluoropyrimidin-2-yl)amino)cyclohexyl)-1′-(4-((2,6-dioxopiperidin-3-yl)amino)-2-fluorophenyl)-3′,3′-difluoro-[1,4′-bipiperidine]-4-carboxamide], the DC50 was under 500 nM.
For `O=C1CCC(Nc2ccc(N3CCC(N4CCC(C(=O)N[C@H]5CC[C@H](Nc6ncc(F)c(-c7cccc(N8CCCCC8)c7)n6)CC5)CC4)C(F)(F)C3)c(F)c2)C(=O)N1` (stereo partly drawn) [Compound 498, trans-1′-(4-((2,6-dioxopiperidin-3-yl)amino)-2-fluorophenyl)-3′,3′-difluoro-N-(4-((5-fluoro-4-(3-(piperidin-1-yl)phenyl)pyrimidin-2-yl)amino)cyclohexyl)-[1,4′-bipiperidine]-4-carboxamide], the DC50 is under 500 nM.
For `O=C1CCC(Nc2ccc(N3CCC(N4CCC(C(=O)N[C@H]5CC[C@H](Nc6ncc(F)c(-c7cccc(N8CCCCC8=O)c7)n6)CC5)CC4)C(F)(F)C3)c(F)c2)C(=O)N1` (stereo partly drawn) [Compound 499, trans-1′-(4-((2,6-dioxopiperidin-3-yl)amino)-2-fluorophenyl)-3′,3′-difluoro-N-(4-((5-fluoro-4-(3-(2-oxopiperidin-1-yl)phenyl)pyrimidin-2-yl)amino)cyclohexyl)-[1,4′-bipiperidine]-4-carboxamide], the DC50 is under 500 nM.
As to `O=C1CCC(Nc2ccc(N3CCC(N4CCC(C(=O)N[C@H]5CC[C@H](Nc6ncc(F)c(-c7cccc(N8CCCOC8=O)c7)n6)CC5)CC4)C(F)(F)C3)c(F)c2)C(=O)N1` (stereo partly drawn) [Compound 500, trans-1′-(4-((2,6-dioxopiperidin-3-yl)amino)-2-fluorophenyl)-3′,3′-difluoro-N-(4-((5-fluoro-4-(3-(2-oxo-1,3-oxazinan-3-yl)phenyl)pyrimidin-2-yl)amino)cyclohexyl)-[1,4′-bipiperidine]-4-carboxamide], the DC50 was under 500 nM.
To `O=C1CCC(Nc2ccc(N3CCC(N4CCC(C(=O)N[C@H]5CC[C@H](Nc6ncc(F)c(-c7cccc(N8CCOCC8=O)c7)n6)CC5)CC4)C(F)(F)C3)c(F)c2)C(=O)N1` (stereo partly drawn) [Compound 501, trans-1′-(4-((2,6-dioxopiperidin-3-yl)amino)-2-fluorophenyl)-3′,3′-difluoro-N-(4-((5-fluoro-4-(3-(3-oxomorpholino)phenyl)pyrimidin-2-yl)amino)cyclohexyl)-[1,4′-bipiperidine]-4-carboxamide] belongs under 500 nM; to `O=C1CCC(Nc2ccc(N3CCC(N4CCC(C(=O)N[C@H]5CC[C@H](Nc6ncc(F)c(-c7cccc(C8CC8)c7)n6)CC5)CC4)C(F)C3)c(F)c2)C(=O)N1` (some centres unmarked) [Compound 502, N-((1r,4r)-4-((4-(3-cyclopropylphenyl)-5-fluoropyrimidin-2-yl)amino)cyclohexyl)-1′-(4-((2,6-dioxopiperidin-3-yl)amino)-2-fluorophenyl)-3′-fluoro-[1,4′-bipiperidine]-4-carboxamide], under 500 nM; to `O=C1CCC(Nc2ccc(C3CCN([C@H]4CC[C@H](NC(=O)[C@H]5CC[C@H](Nc6ncc(F)c(-c7cccc(C8CC8)c7)n6)CC5)CC4)CC3)c(F)c2)C(=O)N1` (stereo partly drawn) [Compound 503, trans-4-((4-(3-cyclopropylphenyl)-5-fluoropyrimidin-2-yl)amino)-N-(trans-4-(4-(4-((2,6-dioxopiperidin-3-yl)amino)-2-fluorophenyl)piperidin-1-yl)cyclohexyl)cyclohexane-1-carboxamide], under 500 nM.
Consider `O=C1CCC(Nc2ccc(N3CCC(N4CCC(C(=O)N[C@H]5CC[C@H](Nc6ncc(F)c(-c7cccc(C8CC8)c7)n6)CC5)CC4)CC3)c(F)c2)C(=O)N1` (stereo partly drawn) [Compound 504, trans-N-(4-((4-(3-cyclopropylphenyl)-5-fluoropyrimidin-2-yl)amino)cyclohexyl)-1′-(4-((2,6-dioxopiperidin-3-yl)amino)-2-fluorophenyl)-[1,4′-bipiperidine]-4-carboxamide], for which the DC50 is under 500 nM.
With `Cn1nc(C2CCC(=O)NC2=O)c2ccc(N3CCN(CCN4CCC(C(=O)N[C@H]5CC[C@H](Nc6ncc(F)c(-c7cccc(-n8ccccc8=O)c7)n6)CC5)CC4)CC3)cc21` (stereo partly drawn) [Compound 506, trans-1-(2-(4-(3-(2,6-dioxopiperidin-3-yl)-1-methyl-1H-indazol-6-yl)piperazin-1-yl)ethyl)-N-((1r,4r)-4-((5-fluoro-4-(3-(2-oxopyridin-1(2H)-yl)phenyl)pyrimidin-2-yl)amino)cyclohexyl)piperidine-4-carboxamide], the DC50 was under 500 nM.
Next, `Cn1nc(C2CCC(=O)NC2=O)c2ccc(C3CCN([C@H]4CC[C@H](CC(=O)N[C@H]5CC[C@H](Nc6ncc(F)c(-c7cccc(-n8ccccc8=O)c7)n6)CC5)CC4)CC3)cc21` (stereo partly drawn) [Compound 507, trans-2-((1r,4R)-4-(4-(3-(2,6-dioxopiperidin-3-yl)-1-methyl-1H-indazol-6-yl)piperidin-1-yl)cyclohexyl)-N-((1r,4R)-4-((5-fluoro-4-(3-(2-oxopyridin-1(2H)-yl)phenyl)pyrimidin-2-yl)amino)cyclohexyl)acetamide]: under 500 nM; `O=C1CCC(Nc2ccc(N3CCN([C@H]4CC[C@H](NC(=O)[C@H]5CC[C@H](Nc6ncc(F)c(-c7cccc(N8CCOCC8=O)c7)n6)CC5)CC4)CC3)c(F)c2)C(=O)N1` (stereo partly drawn) [Compound 508, trans-N-(trans-4-(4-(4-((2,6-dioxopiperidin-3-yl)amino)-2-fluorophenyl)piperazin-1-yl)cyclohexyl)-4-((5-fluoro-4-(3-(3-oxomorpholino)phenyl)pyrimidin-2-yl)amino)cyclohexane-1-carboxamide]: under 500 nM.
Turning to `O=C1CCC(Nc2ccc(N3CCN([C@H]4CC[C@H](NC(=O)[C@H]5CC[C@H](Nc6ncc(F)c(-c7cccc(C(=O)N8CC[C@H](O)C8)c7)n6)CC5)CC4)CC3)c(F)c2)C(=O)N1` (stereo partly drawn) [Compound 509, trans-N-(trans-4-(4-(4-((2,6-dioxopiperidin-3-yl)amino)-2-fluorophenyl)piperazin-1-yl)cyclohexyl)-4-((5-fluoro-4-(3-((S)-3-hydroxypyrrolidine-1-carbonyl)phenyl)pyrimidin-2-yl)amino)cyclohexane-1-carboxamide], the DC50 is under 500 nM.
`O=C1CCC(Nc2ccc(C3CCN([C@H]4CC[C@H](NC(=O)[C@H]5CC[C@H](Nc6ncc(F)c(-c7cccc(C(=O)N8CC[C@H](O)C8)c7)n6)CC5)CC4)CC3)c(F)c2)C(=O)N1` (stereo partly drawn) [Compound 510, trans-N-(trans-4-(4-(4-((2,6-dioxopiperidin-3-yl)amino)-2-fluorophenyl)piperidin-1-yl)cyclohexyl)-4-((5-fluoro-4-(3-((S)-3-hydroxypyrrolidine-1-carbonyl)phenyl)pyrimidin-2-yl)amino)cyclohexane-1-carboxamide]: the DC50 was under 500 nM.
As for `O=C1CCC(Nc2ccc(C3CCN([C@H]4CC[C@H](C(=O)N[C@H]5CC[C@H](Nc6ncc(F)c(-c7cccc(C(=O)N8CC[C@H](O)C8)c7)n6)CC5)CC4)CC3)c(F)c2)C(=O)N1` (stereo partly drawn) [Compound 511, trans-4-(4-(4-((2,6-dioxopiperidin-3-yl)amino)-2-fluorophenyl)piperidin-1-yl)-N-(trans-4-((5-fluoro-4-(3-((S)-3-hydroxypyrrolidine-1-carbonyl)phenyl)pyrimidin-2-yl)amino)cyclohexyl)cyclohexane-1-carboxamide], the DC50 is under 500 nM.
With `Cn1nc(N2CCC(=O)NC2=O)c2cc(F)c(C3CCN([C@H]4CC[C@H](C(=O)N[C@H]5CC[C@H](Nc6ncc(F)c(-c7cccc(-n8ccccc8=O)c7)n6)CC5)CC4)CC3)cc21` [Compound 512, trans-4-(4-(3-(2,4-dioxotetrahydropyrimidin-1(2H)-yl)-5-fluoro-1-methyl-1H-indazol-6-yl)piperidin-1-yl)-N-(trans-4-((5-fluoro-4-(3-(2-oxopyridin-1(2H)-yl)phenyl)pyrimidin-2-yl)amino)cyclohexyl)cyclohexane-1-carboxamide], the DC50 is under 500 nM.
For the compound `O=C1CCC(Nc2ccc(N3CCN(CC4CCN(C(=O)[C@H]5CC[C@H](Nc6ncc(F)c(-c7cccc(N8CCCCC8)c7)n6)CC5)CC4)CC3)c(F)c2)C(=O)N1` (stereo partly drawn) [Compound 513, trans-3-((3-fluoro-4-(4-((1-(4-((5-fluoro-4-(3-(piperidin-1-yl)phenyl)pyrimidin-2-yl)amino)cyclohexane-1-carbonyl)piperidin-4-yl)methyl)piperazin-1-yl)phenyl)amino)piperidine-2,6-dione], the DC50 was under 500 nM.
For the compound `O=C1CC[C@H](Nc2ccc(C3CCN(CC4(O)CCN(C(=O)[C@H]5CC[C@H](Nc6ncc(F)c(-c7cccc(N8CCCCC8)c7)n6)CC5)CC4)CC3)c(F)c2)C(=O)N1` [Compound 514, trans-3-((3-fluoro-4-(1-((1-(4-((5-fluoro-4-(3-(piperidin-1-yl)phenyl)pyrimidin-2-yl)amino)cyclohexane-1-carbonyl)-4-hydroxypiperidin-4-yl)methyl)piperidin-4-yl)phenyl)amino)piperidine-2,6-dione], the DC50 is under 500 nM.
